The source of these data is ChEMBL document CHEMBL4251560, “The Novel 4-Phenyl-2-Phenoxyacetamide Thiazoles modulates the tumor hypoxia leading to the crackdown of neoangiogenesis and evoking the cell death” (Eur J Med Chem, 2018).

Type in all cases: functional, cell-based
Experiment [1] has as its system Ehrlich. The experiment can be described thus: Cytotoxicity against mouse EAC cells assessed as reduction in cell viability after 48 hrs by MTT assay.
A short description of experiment [2]: Cytotoxicity against mouse DLA cells assessed as reduction in cell viability after 48 hrs by trypan blue exclusion assay.
In experiment [3] the test system is A549. The experiment can be described thus: Cytotoxicity against human A549 cells assessed as reduction in cell viability after 48 hrs by trypan blue exclusion assay. The settings on record: A549, 48 h.
The subject of experiment [4] is MDA-MB-468. The experiment can be described thus: Cytotoxicity against human MDA-MB-468 cells assessed as reduction in cell viability after 48 hrs by MTT assay. Particulars: MDA-MB-468, 48 h. (In general: Formazan colour is commonly taken as a measure of viable cells.)
Experiment [5] deals with MCF7. Briefly: Cytotoxicity against human MCF7 cells assessed as reduction in cell viability after 48 hrs by MTT assay. The settings on record: MCF7, 48 h.
Experiment [6] has as its system A549. Briefly: Cytotoxicity against human A549 cells assessed as reduction in cell viability after 48 hrs by MTT assay. The settings on record: A549, 48 h.
Experiment [7] deals with MCF7. Briefly: Cytotoxicity against human MCF7 cells assessed as reduction in cell viability after 48 hrs by trypan blue exclusion assay. The settings on record: MCF7, 48 h.
A short description of experiment [8]: Cytotoxicity against mouse DLA cells assessed as reduction in cell viability after 48 hrs by MTT assay.
In experiment [9] the test system is Ehrlich. The experiment can be described thus: Cytotoxicity against mouse EAC cells assessed as reduction in cell viability after 48 hrs by trypan blue exclusion assay.
Experiment [10] has as its system MDA-MB-468. Briefly: Cytotoxicity against human MDA-MB-468 cells assessed as reduction in cell viability after 48 hrs by trypan blue exclusion assay. Particulars: MDA-MB-468, 48 h.

The structures appear in SMILES notation. pIC50: −log10 of the molar value.

For the molecule `Cc1ccccc1OCC(=O)Nc1nc(-c2ccc(Cl)cc2)cs1`, the pIC50 – broadly, the IC50 on a negative log10 scale, so that one unit is a factor of ten – in experiment [1] was 4.21; in experiment [2], 4.31; in [3], 4.19; in experiment [4], 4.40; in [5] it was 4.21; in experiment [6], 4.19. Further, the pIC50 in experiment [7] is 4.20; in [8] it was 4.31; in experiment [9] it was 4.20; in [10], 4.28.
For the molecule `Cc1ccc(-c2csc(NC(=O)COc3ccccc3C)n2)cc1`, the pIC50 was 4.26 in [1]; 4.33 in experiment [2]; 4.30 in [3]; 4.28 in experiment [4]; 4.27 in [5]; 4.29 in experiment [6]. Further, the pIC50 in [7] is 4.27; in [8], 4.33; in experiment [9], 4.26; in experiment [10], 4.29.
Consider `Cc1ccc(OCC(=O)Nc2nc(-c3ccc(Br)cc3)cs2)cc1`, for which the pIC50 is 4.25 in [1]; 4.36 in experiment [2]; 4.23 in [3]; 4.35 in [4]; 4.28 in experiment [5]; 4.23 in [6]. The pIC50 in experiment [7] was 4.28; in [8], 4.37; in experiment [9], 4.26; in [10], 4.35.
Consider `Cc1ccccc1OCC(=O)Nc1nc(-c2ccc(Br)cc2)cs1`, for which the negative-log IC50 (pIC50) was 4.35 in experiment [1]; 4.20 in [2]; 4.30 in experiment [3]; 4.35 in [4]; 4.40 in [5]; 4.30 in experiment [6]. Further, the negative logarithm of the IC50 (pIC50) was 4.40 in [7], 4.21 in experiment [8], 4.35 in [9] and 4.35 in [10].
Take `Cc1ccc(-c2csc(NC(=O)COc3ccc(Cl)cc3)n2)cc1`: the pIC50 in experiment [1] was 4.37; in experiment [2], 4.28; in experiment [3], 4.35; in [4] it was 4.35; in experiment [5], 4.36; in [6], 4.36. The pIC50 in experiment [7] is 4.36; in [8] it was 4.28; in experiment [9], 4.38; in [10], 4.35.
In the case of `Cc1ccc(-c2csc(NC(=O)COc3ccc(Br)cc3)n2)cc1`, the pIC50 in experiment [1] was 4.32; in experiment [2], 4.29; in experiment [3], 4.43; in experiment [4], 4.39; in [5], 4.41; in experiment [6] it was 4.43. In addition, the negative logarithm of the IC50 (pIC50) in [7] is 4.41; in experiment [8], 4.28; in experiment [9] it was 4.31; in experiment [10], 4.40.
Take `Cc1ccc(-c2csc(NC(=O)COc3ccccc3C(C)C)n2)cc1`: the pIC50 is 4.37 in [1]; 4.28 in [2]; 4.35 in experiment [3]; 4.26 in [4]; 4.31 in [5]; 4.35 in [6]. Also, the pIC50 was 4.31 in experiment [7], 4.28 in [8], 4.37 in experiment [9] and 4.25 in experiment [10].
Regarding `Cc1cc(OCC(=O)Nc2nc(-c3ccc(Br)cc3)cs2)ccc1Cl`, the pIC50 was 4.32 in [1]; 4.40 in experiment [2]; 4.29 in [3]; 4.28 in experiment [4]; 4.28 in [5]; 4.28 in experiment [6]. For the same molecule, the pIC50 is 4.29 in experiment [7], 4.40 in experiment [8], 4.33 in experiment [9] and 4.29 in [10].
As to `O=c1[nH]cc(F)c(=O)[nH]1` [FLUOROURACIL], the pIC50 was 5.04 in [1]; 4.97 in experiment [2]; 4.35 in [4]; 4.99 in experiment [5]; 4.97 in [7]; 4.97 in experiment [8]. Further, the pIC50 is 5.02 in [9] and 4.35 in [10].
Consider `O=C(COc1ccc(Cl)cc1)Nc1nc(-c2ccc(Cl)cc2)cs1`, for which the negative logarithm of the IC50 (pIC50) in experiment [1] is 4.28; in [2], 4.28; in [3], 4.31; in experiment [4], 4.26; in experiment [5], 4.35; in experiment [6], 4.30. For the same molecule, the pIC50 was 4.36 in experiment [7], 4.27 in [8], 4.28 in experiment [9] and 4.25 in experiment [10].
On to `Cc1ccc(OCC(=O)Nc2nc(-c3ccc(Cl)cc3)cs2)cc1`, for which the pIC50 was 4.39 in experiment [1]; 4.28 in experiment [2]; 4.35 in experiment [3]; 4.29 in [4]; 4.31 in experiment [5]; 4.34 in experiment [6]. For the same molecule, the pIC50 in [7] is 4.31; in [8], 4.28; in experiment [9], 4.40; in experiment [10], 4.30.
Turning to `Cc1ccc(-c2csc(NC(=O)COc3ccc(F)cc3)n2)cc1`, the pIC50 was 4.74 in experiment [1]; 4.74 in experiment [2]; 4.72 in experiment [3]; 4.60 in [4]; 4.74 in [5]; 4.71 in experiment [6]. Besides, the pIC50 in experiment [7] was 4.74; in experiment [8], 4.72; in [9] it was 4.74; in [10] it was 4.61.
`Cc1ccc(-c2csc(NC(=O)COc3ccc(Cl)c(C)c3)n2)cc1`: the pIC50 was 4.23 in experiment [1]; 4.23 in experiment [2]; 4.35 in experiment [3]; 4.27 in [4]; 4.39 in experiment [5]; 4.35 in experiment [6]. Besides, the negative-log IC50 (pIC50) is 4.38 in experiment [7], 4.22 in [8], 4.23 in experiment [9] and 4.26 in experiment [10].
As to `O=C(COc1ccc(Br)cc1)Nc1nc(-c2ccc(Cl)cc2)cs1`, the pIC50 in experiment [1] was 4.28; in experiment [2], 4.40; in [3] it was 4.26; in experiment [4], 4.35; in [5], 4.28; in experiment [6] it was 4.26. Moreover, the pIC50 is 4.28 in experiment [7], 4.39 in experiment [8], 4.29 in experiment [9] and 4.29 in experiment [10].
For the molecule `O=C(COc1ccc(F)cc1)Nc1nc(-c2ccc(Cl)cc2)cs1`, the pIC50 in [1] is 4.45; in experiment [2] it was 4.45; in experiment [3], 4.44; in experiment [4], 4.38; in experiment [5], 4.45; in [6], 4.44. Further, the negative-log IC50 (pIC50) in [7] is 4.45; in [8] it was 4.44; in experiment [9], 4.44; in experiment [10], 4.37.
For the molecule `O=C(COc1ccccc1)Nc1nc(-c2ccc(Br)cc2)cs1`, the pIC50 in experiment [1] was 4.43; in experiment [2], 4.25; in experiment [3], 4.28; in [4] it was 4.43; in [5], 4.27; in [6] it was 4.28. The pIC50 in experiment [7] was 4.27; in [8], 4.22; in experiment [9] it was 4.43; in experiment [10] it was 4.43.
For `Cc1cc(Cl)ccc1OCC(=O)Nc1nc(-c2ccc(Cl)cc2)cs1`, the pIC50 in experiment [1] was 4.28; in experiment [2], 4.39; in [3] it was 4.37; in experiment [4], 4.28; in experiment [5], 4.39; in [6], 4.36. For the same molecule, the pIC50 is 4.40 in experiment [7], 4.40 in experiment [8], 4.28 in experiment [9] and 4.28 in [10].
`CC(C)c1ccccc1OCC(=O)Nc1nc(-c2ccc(Cl)cc2)cs1`: the pIC50 is 4.30 in experiment [1]; 4.40 in experiment [2]; 4.77 in [3]; 4.27 in experiment [4]; 4.73 in experiment [5]; 4.75 in experiment [6]. In addition, the pIC50 in experiment [7] was 4.74; in experiment [8], 4.39; in experiment [9] it was 4.30; in experiment [10] it was 4.26.
For `Cc1ccc(OCC(=O)Nc2nc(-c3ccc(C)cc3)cs2)cc1`, the negative logarithm of the IC50 (pIC50) in experiment [1] is 4.34; in [2] it was 4.40; in experiment [3], 4.31; in experiment [4], 4.43; in experiment [5], 4.38; in experiment [6], 4.32. Also, the pIC50 is 4.38 in experiment [7], 4.40 in experiment [8], 4.35 in [9] and 4.43 in experiment [10].
As for `CC(C)c1ccccc1OCC(=O)Nc1nc(-c2ccc(Br)cc2)cs1`, the pIC50 in [1] is 4.29; in [2], 4.35; in [3], 4.31; in [4], 4.29; in experiment [5], 4.37; in [6] it was 4.32. Moreover, the pIC50 in experiment [7] was 4.36; in experiment [8], 4.34; in experiment [9], 4.30; in [10] it was 4.30.
With `O=C(COc1ccc(F)cc1F)Nc1nc(-c2ccc(Cl)cc2)cs1`, the pIC50 was 4.58 in experiment [1]; 4.58 in [2]; 4.58 in [3]; 4.48 in [4]; 4.59 in experiment [5]; 4.58 in experiment [6]. The pIC50 in experiment [7] is 4.60; in experiment [8] it was 4.58; in experiment [9], 4.58; in [10] it was 4.49.
For `Cc1ccc(-c2csc(NC(=O)COc3ccccc3)n2)cc1`, the pIC50 was 4.30 in experiment [1]; 4.29 in experiment [2]; 4.39 in experiment [3]; 4.26 in [4]; 4.37 in experiment [5]; 4.38 in experiment [6]. In addition, the negative-log IC50 (pIC50) was 4.37 in experiment [7], 4.28 in experiment [8], 4.30 in [9] and 4.26 in experiment [10].
